Experimental findings from paper PMC11413964, “Discovery of 1,3-disubstituted prop-2-en-1-one derivatives as inhibitors of neutrophilic inflammation via modulation of MAPK and Akt pathways” (Journal of Enzyme Inhibition and Medicinal Chemistry, 2024) are described below.

Data set [1] concerns fMLF/cytochalasin B (CB)-activated human neutrophils. The data set can be described thus: Superoxide anion generation (ferricytochrome c reduction) in fMLF/CB-activated human neutrophils. The class given is cell-based. The settings on record: Neutrophil, fMLF/CB stimulation, mean ± SEM (n = 3–5); for inhibition at 10 µM: 10 μM compound. The procedure:
(§1) The study involving neutrophils was approved by the Institutional Review Board of Chang Gung Memorial Hospital under IRB number: 201902217A3 and was conducted in accordance with the principles of the Declaration of Helsinki. Healthy volunteers aged 20–35 years provided signed informed consents for blood collection. Isolation of neutrophils was done using dextran sedimentation, Ficoll-Hypaque density gradient centrifugation, and hypotonic haemolysis. For the anti-inflammatory studies, neutrophils were suspended in Hank’s balanced salt solution (HBSS) containing 1 mM Ca^2+ at a pH of 7.4[72].
The reduction of ferricytochrome c was utilised to measure the production of SO anions in activated human neutrophils. […] The neutrophils were then stimulated with fMLF (0.1 μM) and CB (1 μg/mL) for 13 min. […] LY294002 was used as a positive control.

Data set [2] has the same test system. Description: Elastase release in fMLF/CB-activated human neutrophils. It counts as cell-based. The conditions noted are these: Homo sapiens, Neutrophil, fMLF/CB stimulation, mean ± SEM (n = 3–5); for inhibition at 10 µM: 10 μM compound. The procedure: as §1
Neutrophils were subsequently stimulated with fMLF (0.1 μM) and CB (0.5 μg/mL) for 13 min. […] LY294002 was used as a positive control.

Take `CC(C)(C)C(=O)/C=C/c1ccc(Cl)cc1` [Compound 1, (E)-1-(4-Chlorophenyl)-4,4-dimethylpent-1-en-3-one]: the melting point (in general, the temperature, or range, at which the solid turns liquid) lay in the range of 85 to 85.5 °C. Besides, in data set [1], the inhibition – broadly, the drop in the measured response relative to a control, in per cent – at 10 µM amounted to 23.4 ± 7.96%. Besides, the inhibition at 10 µM in data set [2] stood at 8.43 ± 4.28%.

`O=C(/C=C/c1ccc([N+](=O)[O-])cc1)C1CC1` [Compound 1a, (E)-1-Cyclopropyl-3-(4-nitrophenyl)prop-2-en-1-one]: the melting point lay within 118.9 to 120 °C. In addition, the inhibition at 10 µM in data set [1] stood at 20.5 ± 4.05%. Moreover, in data set [2], the inhibition at 10 µM was found to be 2.36 ± 3.3%.

As for `O=C(/C=C/c1ccc(Cl)cc1)c1ccccc1` [Compound 2, (E)-3-(4-Chlorophenyl)-1-phenylprop-2-en-1-one], the inhibition at 10 µM came out at 94.7 ± 3.22% in data set [1] and 62 ± 6.31% in data set [2]. For the same compound, the results for the IC50 in data set [1] and in data set [2] were 3.01 ± 0.68 µM and 7.78 ± 0.96 µM, respectively.

Consider `CC1(C(=O)/C=C/c2ccc([N+](=O)[O-])cc2)CC1` [Compound 2a, (E)-1-(1-Methylcyclopropyl)-3-(4-nitrophenyl)prop-2-en-1-one], for which the melting point amounted to 133.1 °C. For the same compound, in data set [1], the inhibition at 10 µM turned out to be 8.75 ± 5.03%. In data set [2], the inhibition at 10 µM amounted to 8.39 ± 2.25%.

As for `CC(C)(C)C(=O)/C=C/c1ccc(Br)cc1` [Compound 3, (E)-1-(4-Bromophenyl)-4,4-dimethylpent-1-en-3-one], the melting point came to 101 °C. In addition, the inhibition at 10 µM in data set [1] was 25 ± 2.48%. The inhibition at 10 µM in data set [2] was 9.09 ± 2.01%.

For `O=C(/C=C/c1ccc([N+](=O)[O-])cc1)C1CCCCC1` [Compound 3a, (E)-1-Cyclohexyl-3-(4-nitrophenyl)prop-2-en-1-one], the melting point was 132 to 134 °C. Moreover, the inhibition at 10 µM in data set [1] worked out at 11.4 ± 1.6%. Also, the inhibition at 10 µM in data set [2] was found to be 11.9 ± 4.68%.

As for `CC(C)(C)C(=O)/C=C/c1ccc(C(F)(F)F)cc1` [Compound 4, (E)-4,4-Dimethyl-1-(4-(trifluoromethyl)phenyl)pent-1-en-3-one], the melting point lay in the range of 70 to 71 °C. Besides, the inhibition at 10 µM in data set [1] was 11.7 ± 5.39%. In addition, in data set [2], the inhibition at 10 µM amounted to 1.18 ± 0.98%.

In turn, `Cc1ccccc1C(=O)/C=C/c1ccc([N+](=O)[O-])cc1` [Compound 4a, (E)-3-(4-Nitrophenyl)-1-(o-tolyl)prop-2-en-1-one] gave a melting point of 128 to 129 °C. In addition, in data set [1], the inhibition at 10 µM came to 100 ± 2.65% and the IC50 (commonly the concentration at which inhibition is half-maximal) is 4.55 ± 0.1 µM. In data set [2], the inhibition at 10 µM came to 63.8 ± 5.98% and half-maximal inhibition (IC50) required 7.22 ± 1.16 µM.

Consider `CCOc1ccccc1C(=O)/C=C/c1ccccc1C(F)(F)F` [Compound 5, (E)-1-(2-Ethoxyphenyl)-3-(2-(trifluoromethyl)phenyl)prop-2-en-1-one], for which the melting point was 70.5 to 71.5 °C. In data set [1], the inhibition at 10 µM is 68.3 ± 8.99% and the IC50 turned out to be 1.81 ± 0.22 µM. The inhibition at 10 µM in data set [2] is 8.13 ± 3.43%.

Consider `COc1ccccc1C(=O)/C=C/c1ccc([N+](=O)[O-])cc1` [Compound 5a, (E)-1-(2-Methoxyphenyl)-3-(4-nitrophenyl)prop-2-en-1-one], for which the melting point is 116.5 to 118 °C. In data set [1], the inhibition at 10 µM is 102 ± 1.92% and half-maximal inhibition (IC50) required 3.77 ± 0.33 µM. Moreover, in data set [2], the inhibition at 10 µM came to 75.6 ± 5.02% and the IC50 was found to be 6.25 ± 0.52 µM.

In turn, `O=C(/C=C/c1ccc([N+](=O)[O-])cc1)c1ccccn1` [Compound 7, (E)-3-(4-Nitrophenyl)-1-(pyridin-2-yl)prop-2-en-1-one] came in with a melting point of 153 to 155 °C. In data set [1], the inhibition at 10 µM was 94.5 ± 2.89% and inhibition was half-maximal at 4.35 ± 0.3 µM (IC50). In addition, in data set [2], the inhibition at 10 µM turned out to be 78.1 ± 0.36% and it took 6.17 ± 0.1 µM to reach half-maximal inhibition (IC50).

In the case of `COc1ccc(C(=O)/C=C/c2ccc([N+](=O)[O-])cc2)cc1` [Compound 7a, (E)-1-(4-Methoxyphenyl)-3-(4-nitrophenyl)prop-2-en-1-one], in data set [1], the inhibition at 10 µM came to 59.7 ± 1.41% and the IC50 is 6.9 ± 0.67 µM. Moreover, in data set [2], the inhibition at 10 µM was found to be 63.8 ± 6.59% and the midpoint of inhibition, the IC50, lay at 6.33 ± 1.15 µM.

For the compound `CC(C)(C)C(=O)/C=C/c1cccc([N+](=O)[O-])c1` [Compound 8, (E)-4,4-Dimethyl-1-(3-nitrophenyl)pent-1-en-3-one], the melting point was 92 to 93 °C. Further, the inhibition at 10 µM in data set [1] amounted to 10.3 ± 2.86%. For the same compound, the inhibition at 10 µM in data set [2] is 4.89 ± 0.91%.

The compound `COc1ccc(C(=O)/C=C/c2ccc([N+](=O)[O-])cc2)cc1OC` [Compound 8a, (E)-1-(3,4-Dimethoxyphenyl)-3-(4-nitrophenyl)prop-2-en-1-one] registered a melting point of 189 to 191 °C. Besides, in data set [1], the inhibition at 10 µM came to 81 ± 2.57% and the half-inhibitory concentration (IC50) amounted to 2.72 ± 0.35 µM. Also, in data set [2], the inhibition at 10 µM was 56.9 ± 3.22% and the midpoint of inhibition, the IC50, lay at 8.31 ± 0.78 µM.

`CC(C)(C)C(=O)/C=C/c1ccc(C#N)cc1` [Compound 9, (E)-4-(4,4-Dimethyl-3-oxopent-1-en-1-yl)benzonitrile]: the melting point was 131 to 133 °C. Moreover, in data set [1], the inhibition at 10 µM amounted to 20.9 ± 5.55%. The inhibition at 10 µM in data set [2] came to 3.76 ± 2.69%.

For the compound `O=C(/C=C/c1ccc([N+](=O)[O-])cc1)c1ccc2c(c1)OCO2` [Compound 9a, (E)-1-(Benzo[d][1,3]dioxol-5-yl)-3-(4-nitrophenyl)prop-2-en-1-one], the melting point worked out at 182.4 °C. Further, the inhibition at 10 µM in data set [1] worked out at 18.1 ± 3.34%. Further, the inhibition at 10 µM in data set [2] stood at 16.7 ± 6.07%.

Compound `Cc1ccc(/C=C/C(=O)C(C)(C)C)cc1` [Compound 10, (E)-4,4-Dimethyl-1-(p-tolyl)pent-1-en-3-one] came in with a melting point of 79 to 80 °C. Also, the inhibition at 10 µM in data set [1] came to 8.56 ± 3.04%. In addition, the inhibition at 10 µM in data set [2] was 3.91 ± 2.82%.

`O=C(/C=C/c1ccc(Cl)cc1)c1ccc2ccccc2c1` [Compound 10a, (E)-3-(4-Chlorophenyl)-1-(naphthalen-2-yl)prop-2-en-1-one] returned a melting point of 162 to 164 °C. In addition, the inhibition at 10 µM in data set [1] came out at 14.2 ± 6.87%. In addition, in data set [2], the inhibition at 10 µM turned out to be 33.2 ± 6.47%.

The compound `CC(C)(C)Oc1ccc(/C=C/C(=O)C(C)(C)C)cc1` [Compound 11, (E)-1-(4-(tert-Butoxy)phenyl)-4,4-dimethylpent-1-en-3-one] gave a melting point of 110 to 111 °C. For the same compound, the inhibition at 10 µM in data set [1] was 16.8 ± 3.85%. In addition, in data set [2], the inhibition at 10 µM was found to be 12.1 ± 3.43%.

With `CC(C)(C)Oc1ccc(/C=C/C(=O)c2ccco2)cc1` [Compound 12, (E)-3-(4-(tert-Butoxy)phenyl)-1-(furan-2-yl)prop-2-en-1-one], the melting point was in the range of 132.8 to 134.8 °C. Besides, in data set [1], the inhibition at 10 µM was found to be 27.3 ± 2.07%. The inhibition at 10 µM in data set [2] came out at 19.2 ± 4.05%.

As for `COc1cccc(C(=O)/C=C/c2ccc(Cl)cc2)c1` [Compound 13a, (E)-3-(4-Chlorophenyl)-1-(3-methoxyphenyl)prop-2-en-1-one], the inhibition at 10 µM in data set [1] is 101.7 ± 0.44%; in data set [2], 91.9 ± 1.63%. The IC50 stood at 1.37 ± 0.73 µM in data set [1] and 3.3 ± 0.68 µM in data set [2].

For the compound `COc1ccc(C(=O)/C=C/c2ccc(Cl)cc2)cc1` [Compound 14a, (E)-3-(4-Chlorophenyl)-1-(4-methoxyphenyl)prop-2-en-1-one], the inhibition at 10 µM turned out to be 58.9 ± 3.26% in data set [1] and 5.49 ± 4.32% in data set [2]. The same compound returned an IC50 in data set [1] of 6.09 ± 7.19 µM.

As to `COc1ccc(C(=O)/C=C/c2ccc(Cl)cc2)c(OC)c1` [Compound 15a, (E)-3-(4-Chlorophenyl)-1-(2,4-dimethoxyphenyl)prop-2-en-1-one], the inhibition at 10 µM in data set [1] worked out at 13.9 ± 2.43%; in data set [2] it was 4.42 ± 3.9%.

For the compound `COc1ccc(C(=O)/C=C/c2ccc(Cl)cc2)cc1OC` [Compound 16a, (E)-3-(4-Chlorophenyl)-1-(3,4-dimethoxyphenyl)prop-2-en-1-one], the inhibition at 10 µM amounted to 68.2 ± 7.74% in data set [1] and 22.9 ± 7.11% in data set [2]. The compound also returned an IC50 in data set [1] of 5.53 ± 1.48 µM.

Regarding `COc1ccc(C(=O)/C=C/c2ccccc2Cl)cc1` [Compound 19a, (E)-3-(2-Chlorophenyl)-1-(4-methoxyphenyl)prop-2-en-1-one], in data set [1], the inhibition at 10 µM was determined as 80.2 ± 1.98% and it took 5.23 ± 0.62 µM to reach half-maximal inhibition (IC50). Moreover, in data set [2], the inhibition at 10 µM amounted to 37.6 ± 3.54%.

Regarding `COc1ccc(C(=O)/C=C/c2ccccc2Cl)cc1OC` [Compound 20a, (E)-3-(2-Chlorophenyl)-1-(3,4-dimethoxyphenyl)prop-2-en-1-one], the inhibition at 10 µM was determined as 95.6 ± 1.14% in data set [1] and 67.7 ± 5.37% in data set [2]. For the same compound, the IC50 in data set [1] was found to be 3.55 ± 0.56 µM; in data set [2], 6.79 ± 0.72 µM.

Take `CC(C)(C)C(=O)/C=C/c1ccc(Br)s1` [Compound 24, (E)-1-(5-Bromothiophen-2-yl)-4,4-dimethylpent-1-en-3-one]: the inhibition at 10 µM in data set [1] came to 13 ± 6.88%; in data set [2], 25.7 ± 5.36%.

For `CCOc1ccccc1C(=O)/C=C/c1ccc(Br)s1` [Compound 25, (E)-3-(5-Bromothiophen-2-yl)-1-(2-ethoxyphenyl)prop-2-en-1-one], the results for the inhibition at 10 µM in data set [1] and in data set [2] were 67.8 ± 3.19% and 26.9 ± 5.5%, respectively. In data set [1], this compound displayed an IC50 of 6.21 ± 0.36 µM.

Consider `CC(C)(C)C(=O)/C=C/c1ccc2ccccc2n1` [Compound 27, (E)-4,4-Dimethyl-1-(quinolin-2-yl)pent-1-en-3-one], for which the results for the inhibition at 10 µM in data set [1] and in data set [2] were 2.26 ± 0.97% and 5.21 ± 2.72%, respectively.

Take `O=c1cc(N2CCOCC2)oc2c(-c3ccccc3)cccc12` [LY294002, reference compound]: the figures for the inhibition at 10 µM in data set [1] and in data set [2] were 102 ± 2.64% and 82.5 ± 3.76%, respectively.
